Some results are limits rather than exact numbers.

This test has as its system Staphyloccoccus aureus, strain ATCC23273. The test can be described thus: Colony forming units in agar BHI of samples from the bactericidal/bacteriostatic test. Type of test: cell-based, Staphylococcus aureus. Further details: key to Colony forming unites (CFU) in agar BHI: i = uncountable. The protocol:
The bactericidal/bacteriostatic effect of the propolis nanoparticles, of nanoencapsulated arithromycin in propolis extract and of pure arithromycin was determined in vitro against samples of Staphylocossus aureus (strain ATCC23273) cultivated in Mueller Hinton culture broth, according to Table 3. Since azithromycyn is a bacteriostatic antibiotic, the samples of the different dilutions were used to determine the core of colony forming units (UFC) in agar BHI (brain-heart-infusion), and thereby determine the bactericidal/bacteriostatic effect shown in Table 4.

Turning to `CC[C@H]1OC(=O)[C@H](C)[C@@H](O[C@H]2C[C@@](C)(OC)[C@@H](O)[C@H](C)O2)[C@H](C)[C@@H](O[C@@H]2O[C@H](C)C[C@H](N(C)C)[C@H]2O)[C@](C)(O)C[C@@H](C)CN(C)[C@H](C)[C@@H](O)[C@]1(C)O` [A, azithromycin], for the setting “from broth test and CFU count”, the “concentration with bactericidal effect on Staphylococcus aureus” value was at least 128 µg/mL. Also, the “Colony forming unites (CFU) in agar BHI” value runs as follows: (origin tube 4) “i”; (origin tube 8) 30 UFC; (origin tube 16) 3 UFC; (origin tube 32) 1 UFC; (origin tube 64) 1 UFC; (origin tube 128) 0 UFC. Also, the “Colony forming unites (CFU) in agar BHI” value is, setting by setting: (origin tube 512) 0 UFC; (origin tube 526) 0 UFC.

Source of the values: US11253477B2, “Compositions based on propolis nanocapsules which can be used as carriers for substances of interest, methods for producing same and use thereof” (EMPRESA BRASILEIRA DE PESQUISA AGROPECUÁRIA—EMBRAPA, priority 2010, dated 2022).
